Experiments:
Format in all cases: cell-based
A-549 = assay: In vitro cytotoxicity (SRB), A-549; conditions: Homo sapiens, A549, A-549 (lung), 48-hours, read-out: Percent growth inhibition; for inhibition at 10 µg/mL: 10 μg/ml; for inhibition at 30 µg/mL: 30 μg/ml; for inhibition at 100 µg/mL: 100 μg/ml
Description: (§1) The human cancer cell lines were obtained either from National center for cell science, Pune, India or National Cancer Institute, Frederick, Md., U.S.A. Cells were grown in tissue culture flasks in complete growth medium (RPMI-1640 medium with 2 mM glutamine, 100 μg/ml streptomycin, pH 7.4, sterilized by filtration and supplemented with 10% sterilized fetal calf serum and 100 units/ml penicillin before use) at 37° C. in an atmosphere of 5% CO2 and 90% relative humidity in a carbon dioxide incubator (WTB binder, Germany). The cells at subconfluent stage were harvested from the flask by treatment with trypsin (0.05% trypsin in PBS containing 0.02% EDTA) and suspended in complete growth medium. Cells with cell viability of more than 97% by trypan blue exclusion technique were used for determination of cytotoxicity.
(§2) (−)-Matairesinol was dissolved in DMSO (dimethyl sulphoxide) to obtain a stock solution of 20 mg/ml. The stock solution was serially diluted with complete growth medium containing 50 μg/ml of gentamycin to obtain three working test solutions of 200, 60 and 20 μg/ml
(§3) The suspension of human cancer cell lines of required cell density in complete growth medium was prepared and cell suspension ([…] per wall) of each cell line) of 96-well tissue culture plate. Three additional wells of each cell line were also prepared for control. Two blank wells for control and each experimental and each experimental set for every cell line were also included that contained equivalent amount of complete growth medium only. The plates were incubated at 37° C. in an atmosphere of 5% CO2 and 90% relative humidity in a carbon dioxide incubator.
(§4) The working test solutions of (−)-Matairesinol of different concentrations (100 μl) were added after 24-hours incubation in all the wells including blanks of the experimental set. The equivalent amount of complete growth medium was added to control set.
(§5) The plates were further incubated for 48-hours (at 37° C. in an atmosphere of 5% CO2 and 90% relative humidity in a carbon dioxide incubator) after addition of test material etc. and then the cell growth was stopped by gently layering of 50 μl of TCA (50% trichloroacetic acid) on top of the medium in all the wells. The plates were incubated at 4° C. for one hour to fix the cells attached to the bottom of the wells. Liquids of all the wells were gently pipetted out and discarded. The plates were washed five times with distilled water to remove TCA, growth medium, low molecular weight metabolites, serum proteins etc. Plates were air-dried.
(§6) Cell growth was measured by staining with sulforhodamine B dye (SRB). The SRB solution (100 μl of 0.4% in 1% acetic acid) was added to each well and the plates were incubated at room temperature for 30 minutes. The unbound SRB was quickly removed by washing the wells five times with 1-% acetic acid and plates were air-dried. Tris-buffer (100 μl of 0.01 M, pH 10.4) was added to all the wells and plates were gently stirred for 5 minutes on a mechanical stirrer. The optical density was recorded on ELISA reader at 540 run.
(§7) The cell growth in presence of test material was determined by subtracting mean OD value of respective blank from the mean OD value of experimental set. Like wise, cell growth in absence of test material (control set) and in presence of positive control was also determined. The percent cell growth in presence of test material was determined considering the cell growth in absence of test material as 100% and in turn percent inhibition was calculated.

SW-620 = assay: In vitro cytotoxicity (SRB), SW-620; conditions: Homo sapiens, SW-620 (colon), 48-hours, read-out: Percent growth inhibition; for inhibition at 30 µg/mL: 30 μg/ml; for inhibition at 100 µg/mL: 100 μg/ml
Description: as §1, §2, §3, §4, §5
Cell growth was measured by staining with sulforhodamine B dye (SRB). The SRB solution (100 μl of 0.4% in 1% acetic acid) was added to each well and the plates were incubated at room temperature for 30 minutes. The unbound SRB was quickly removed by washing the wells five times with 1-% acetic acid and plates were air-dried. […] The optical density was recorded on ELISA reader at 540 run.
as §7

HT-29 = assay: In vitro cytotoxicity (SRB), HT-29; conditions: Homo sapiens, HT-29 (colon), 48-hours, read-out: Percent growth inhibition; for inhibition at 30 µg/mL: 30 μg/ml; for inhibition at 100 µg/mL: 100 μg/ml
Description: as §1, §2, §3, §4
The plates were further incubated for 48-hours (at 37° C. in an atmosphere of 5% CO2 and 90% relative humidity in a carbon dioxide incubator) after addition of test material etc. and then the cell growth was stopped by gently layering of 50 μl of TCA (50% trichloroacetic acid) on top of the medium in all the wells. […]
(§8) Cell growth was measured by staining with sulforhodamine B dye (SRB). […] The optical density was recorded on ELISA reader at 540 run.
as §7

ZR-75-1 = assay: In vitro cytotoxicity (SRB), ZR-75-1; conditions: Homo sapiens; ZR-75-1 (breast), 100 μg/ml, 48-hours; read-out: Percent growth inhibition
Description: as §1, with “Cells with cell viability of more than 97% by trypan blue exclusion technique were used for determination of cytotoxicity.” left out
as §8, §7

human cancer cell lines = assay: In vitro cytotoxicity against the human cancer cell lines studied (panel); conditions: for inhibition of cell growth of the human cancer cell lines studied (in words): 10, 30 and 100 μg/ml; for inhibition at 100 µg/mL: Homo sapiens, at 100 μg/ml, read-out: inhibition of cell growth, range over the human cancer cell lines studied
Description: as §1, §2, §3
The working test solutions of (−)-Matairesinol of different concentrations (100 μl) were added after 24-hours incubation in all the wells including blanks of the experimental set. The equivalent amount of complete growth medium was added to control set. […]
as §8, §7
In vitro cytotoxicity of (−)-matairesinol was determined against human breast (MCF-7 & ZR-75-1), neuroblastoma (SK-N-MC & IMR-32), cervix (SiHa), colon (Colo-205, HT-29 & SW-620), liver (HEP-2) and lung (A-549) cancer cell lines. […]

MCF-7 = assay: In vitro cytotoxicity (SRB), MCF-7; conditions: Homo sapiens, MCF7, MCF-7 (breast), 48-hours, read-out: Percent growth inhibition; for inhibition at 10 µg/mL: 10 μg/ml; for inhibition at 30 µg/mL: 30 μg/ml; for inhibition at 100 µg/mL: 100 μg/ml
Description: as §1, §2, §3, §4, §5, §6, §7

cancer cells of lung = assay: Growth inhibition of cancer cells of lung; conditions: Homo sapiens, A549; concentration of about 100 μg/ml; A-549; read-out: inhibits the growth of cancer cells of lung
Description: as §1, with “Cells with cell viability of more than 97% by trypan blue exclusion technique were used for determination of cytotoxicity.” left out
as §8, §7

Colo-205 = assay: In vitro cytotoxicity (SRB), Colo-205; conditions: Homo sapiens, Colo-205 (colon), 48-hours, read-out: Percent growth inhibition; for inhibition at 10 µg/mL: 10 μg/ml; for inhibition at 30 µg/mL: 30 μg/ml; for inhibition at 100 µg/mL: 100 μg/ml
Description: as §1, §2, §3, §4, §5, §6, §7

SiHa = assay: In vitro cytotoxicity (SRB), SiHa; conditions: Homo sapiens, SiHa (cervix), 48-hours, read-out: Percent growth inhibition; for inhibition at 10 µg/mL: 10 μg/ml; for inhibition at 30 µg/mL: 30 μg/ml; for inhibition at 100 µg/mL: 100 μg/ml
Description: as §1, §2, §3, §4, §5, §6, §7

[1] = tested on: cancer cells of neuroblastoma; assay: Growth inhibition of cancer cells of neuroblastoma; conditions: Homo sapiens; concentration of about 100 μg/ml; SKNMC and IMR-32; read-out: inhibits the growth of cancer cells of neuroblastoma
Description: as §1, with “Cells with cell viability of more than 97% by trypan blue exclusion technique were used for determination of cytotoxicity.” left out
as §8, §7

cancer cells of breast = assay: Growth inhibition of cancer cells of breast; conditions: Homo sapiens; concentration of about 100 μg/ml; MCF-7 and ZR-75-1; read-out: inhibits the growth of cancer cells of breast
Description: as §1, with “Cells with cell viability of more than 97% by trypan blue exclusion technique were used for determination of cytotoxicity.” left out
as §8, §7

cancer cells of colon = assay: Growth inhibition of cancer cells of colon; conditions: Homo sapiens; concentration of about 100 μg/ml; Colo-205, HT-29 and SW-620; read-out: inhibits the growth of cancer cells of colon
Description: as §1, with “Cells with cell viability of more than 97% by trypan blue exclusion technique were used for determination of cytotoxicity.” left out
as §8, §7

IMR-32 = assay: In vitro cytotoxicity (SRB), IMR-32; conditions: Homo sapiens; IMR-32 (neuroblastoma), 100 μg/ml, 48-hours; read-out: Percent growth inhibition
Description: as §1, with “Cells with cell viability of more than 97% by trypan blue exclusion technique were used for determination of cytotoxicity.” left out
as §8, §7

cancer cells of cervix = assay: Growth inhibition of cancer cells of cervix; conditions: Homo sapiens; concentration of about 100 μg/ml; SiHa; read-out: inhibits the growth of cancer cells of cervix
Description: as §1, with “Cells with cell viability of more than 97% by trypan blue exclusion technique were used for determination of cytotoxicity.” left out
as §8, §7

Hep-2 = assay: In vitro cytotoxicity (SRB), Hep-2; conditions: Homo sapiens; Hep-2 (liver), 100 μg/ml, 48-hours; read-out: Percent growth inhibition
Description: as §1, with “Cells with cell viability of more than 97% by trypan blue exclusion technique were used for determination of cytotoxicity.” left out
as §8, §7

cancer cells of liver = assay: Growth inhibition of cancer cells of liver; conditions: Homo sapiens; concentration of about 100 μg/ml; Hep-2; read-out: inhibits the growth of cancer cells of liver
Description: as §1, with “Cells with cell viability of more than 97% by trypan blue exclusion technique were used for determination of cytotoxicity.” left out
as §8, §7

SKNMC = assay: In vitro cytotoxicity (SRB), SKNMC; conditions: Homo sapiens, SK-N-MC; SKNMC (neuroblastoma), 100 μg/ml, 48-hours; read-out: Percent growth inhibition
Description: as §1, with “Cells with cell viability of more than 97% by trypan blue exclusion technique were used for determination of cytotoxicity.” left out
as §8, §7

Row | Structure (SMILES) | inhibition at 10 µg/mL (A-549) | inhibition at 30 µg/mL (A-549) | inhibition at 100 µg/mL (A-549) | inhibition at 30 µg/mL (SW-620) | inhibition at 100 µg/mL (SW-620) | inhibition at 30 µg/mL (HT-29) | inhibition at 100 µg/mL (HT-29) | inhibition at 100 µg/mL (ZR-75-1) | inhibition of cell growth of the human cancer cell lines studied (in words) (human cancer cell lines) | inhibition at 100 µg/mL (human cancer cell lines) | inhibition at 10 µg/mL (MCF-7) | inhibition at 30 µg/mL (MCF-7) | inhibition at 100 µg/mL (MCF-7) | inhibition at 100 µg/mL (cancer cells of lung) | inhibition at 10 µg/mL (Colo-205) | inhibition at 30 µg/mL (Colo-205) | inhibition at 100 µg/mL (Colo-205) | inhibition at 10 µg/mL (SiHa) | inhibition at 30 µg/mL (SiHa) | inhibition at 100 µg/mL (SiHa) | further results
1 | COc1cc(CC2COC(=O)C2(O)Cc2ccc(O)c(OC)c2)ccc1O (stereo in doubt) [(−)-Wikstromol] | 21% | 37% | 56% | 20% | 50% | 6% | 32% | 37% | dose dependent inhibition of cell growth | 32 to 67% | 7% | 26% | 51% | ≤ 56% | 5% | 27% | 67% | 16% | 21% | 37% | inhibition at 10 µg/mL (SW-620; 10 μg/ml): 14%; inhibition at 100 µg/mL [1]: ≤ 56%; inhibition at 100 µg/mL (cancer cells of breast): ≤ 51%; inhibition at 100 µg/mL (cancer cells of colon): ≤ 67%; inhibition at 100 µg/mL (IMR-32): 56%; inhibition at 100 µg/mL (cancer cells of cervix): ≤ 37%; inhibition at 100 µg/mL (Hep-2): 46%; inhibition at 100 µg/mL (cancer cells of liver): ≤ 46%; inhibition at 100 µg/mL (SKNMC): 44%
2 | COc1cc(C[C@H]2COC(=O)[C@@H]2Cc2ccc(O)c(OC)c2)ccc1O [(−)-Matairesinol] | 19% | 33% | 65% | 11% | 68% | 10% | 74% | 62% | dose dependent inhibition of cell growth | 54 to 93% | 10% | 36% | 54% | ≤ 65% | 15% | 28% | 93% | 10% | 29% | 63% | inhibition at 100 µg/mL [1]: ≤ 77%; inhibition at 100 µg/mL (cancer cells of breast): ≤ 62%; inhibition at 100 µg/mL (cancer cells of colon): ≤ 93%; inhibition at 100 µg/mL (IMR-32): 77%; inhibition at 100 µg/mL (cancer cells of cervix): ≤ 63%; inhibition at 100 µg/mL (Hep-2): 64%; inhibition at 100 µg/mL (cancer cells of liver): ≤ 64%; inhibition at 100 µg/mL (SKNMC): 75%
